Here are results for 27 compounds from US8471005B2 (Cephalon, Inc., priority 2008, dated 2013).

Read-outs that look alike come from different tables or passages of the source.

One assay deals with T1, ALK (Homo sapiens, UniProt Q9UM73).
T1 construct: host or cells: baculovirus expression system
The assay is described as follows: ALK Kinase Assay (ELISA/TRF, PLC-γ substrate). The following applies: read-out: ALK Potency. Format: biochemical. The gist of the method: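 Time-resolved fluorescence ELISA using Eu-N1 PT66 antibody to detect phosphorylated PLC-γ (coated at 10 μg/mL). Enzyme at 30 ng/ml ALK; 15 min incubation, 37° C.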

The next assay has as its target T2, JAK2 (Homo sapiens, UniProt O60674).
T2 construct: host or cells: baculovirus expression system
Briefly: Recombinant Human JAK2 Kinase Assay (TRF). Format: biochemical. The settings on record: read-out: JAK2 Potency. A digest of the protocol:
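Baculovirus-expressed JAK2 (15 ng/ml) phosphorylated a biotinylated 15-mer peptide captured on Neutravidin, in 20 mM HEPES pH 7.2, 0.2 μM ATP, 1 mM MnCl2, 0.1% BSA, 2.5% DMSO final, 20 min at room temperature. Phosphoproduct detected by time-resolved fluorescence with Eu-N1-labelled PY100 antibody.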

Setting [1] is: ALK kinase inhibition, 1 μM ATP.
[2] abbreviates: JAK2 kinase inhibition, 0.2 μM ATP.

T2 sequence (O60674 whole entry): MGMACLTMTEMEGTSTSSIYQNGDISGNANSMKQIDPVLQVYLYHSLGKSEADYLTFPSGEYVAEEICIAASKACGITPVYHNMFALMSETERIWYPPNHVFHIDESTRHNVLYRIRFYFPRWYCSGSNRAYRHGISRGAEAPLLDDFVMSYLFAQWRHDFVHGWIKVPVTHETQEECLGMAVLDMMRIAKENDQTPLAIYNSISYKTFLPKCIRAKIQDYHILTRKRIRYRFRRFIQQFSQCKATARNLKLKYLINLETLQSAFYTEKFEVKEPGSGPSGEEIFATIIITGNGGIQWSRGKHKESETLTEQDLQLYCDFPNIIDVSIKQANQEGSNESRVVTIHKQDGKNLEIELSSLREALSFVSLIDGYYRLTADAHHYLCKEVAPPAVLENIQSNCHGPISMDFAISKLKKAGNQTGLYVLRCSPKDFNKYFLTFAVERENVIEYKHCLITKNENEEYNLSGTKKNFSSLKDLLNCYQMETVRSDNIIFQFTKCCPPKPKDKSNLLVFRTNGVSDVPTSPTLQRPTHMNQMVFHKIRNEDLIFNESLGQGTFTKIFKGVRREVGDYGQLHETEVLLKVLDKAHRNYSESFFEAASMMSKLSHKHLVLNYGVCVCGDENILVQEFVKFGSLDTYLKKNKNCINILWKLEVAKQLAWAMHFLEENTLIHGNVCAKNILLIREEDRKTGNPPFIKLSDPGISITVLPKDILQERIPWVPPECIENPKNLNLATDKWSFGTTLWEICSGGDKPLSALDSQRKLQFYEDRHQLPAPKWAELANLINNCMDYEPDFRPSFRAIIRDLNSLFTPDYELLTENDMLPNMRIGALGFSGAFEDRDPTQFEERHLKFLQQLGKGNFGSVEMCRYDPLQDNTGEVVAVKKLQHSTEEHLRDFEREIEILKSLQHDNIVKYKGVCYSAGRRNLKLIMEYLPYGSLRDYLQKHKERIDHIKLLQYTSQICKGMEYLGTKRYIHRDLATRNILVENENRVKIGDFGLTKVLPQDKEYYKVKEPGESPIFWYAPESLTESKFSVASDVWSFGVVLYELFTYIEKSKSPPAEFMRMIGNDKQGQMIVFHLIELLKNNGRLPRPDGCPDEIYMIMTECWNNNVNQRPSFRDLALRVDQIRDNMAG
T1 sequence (Q9UM73 19-1620): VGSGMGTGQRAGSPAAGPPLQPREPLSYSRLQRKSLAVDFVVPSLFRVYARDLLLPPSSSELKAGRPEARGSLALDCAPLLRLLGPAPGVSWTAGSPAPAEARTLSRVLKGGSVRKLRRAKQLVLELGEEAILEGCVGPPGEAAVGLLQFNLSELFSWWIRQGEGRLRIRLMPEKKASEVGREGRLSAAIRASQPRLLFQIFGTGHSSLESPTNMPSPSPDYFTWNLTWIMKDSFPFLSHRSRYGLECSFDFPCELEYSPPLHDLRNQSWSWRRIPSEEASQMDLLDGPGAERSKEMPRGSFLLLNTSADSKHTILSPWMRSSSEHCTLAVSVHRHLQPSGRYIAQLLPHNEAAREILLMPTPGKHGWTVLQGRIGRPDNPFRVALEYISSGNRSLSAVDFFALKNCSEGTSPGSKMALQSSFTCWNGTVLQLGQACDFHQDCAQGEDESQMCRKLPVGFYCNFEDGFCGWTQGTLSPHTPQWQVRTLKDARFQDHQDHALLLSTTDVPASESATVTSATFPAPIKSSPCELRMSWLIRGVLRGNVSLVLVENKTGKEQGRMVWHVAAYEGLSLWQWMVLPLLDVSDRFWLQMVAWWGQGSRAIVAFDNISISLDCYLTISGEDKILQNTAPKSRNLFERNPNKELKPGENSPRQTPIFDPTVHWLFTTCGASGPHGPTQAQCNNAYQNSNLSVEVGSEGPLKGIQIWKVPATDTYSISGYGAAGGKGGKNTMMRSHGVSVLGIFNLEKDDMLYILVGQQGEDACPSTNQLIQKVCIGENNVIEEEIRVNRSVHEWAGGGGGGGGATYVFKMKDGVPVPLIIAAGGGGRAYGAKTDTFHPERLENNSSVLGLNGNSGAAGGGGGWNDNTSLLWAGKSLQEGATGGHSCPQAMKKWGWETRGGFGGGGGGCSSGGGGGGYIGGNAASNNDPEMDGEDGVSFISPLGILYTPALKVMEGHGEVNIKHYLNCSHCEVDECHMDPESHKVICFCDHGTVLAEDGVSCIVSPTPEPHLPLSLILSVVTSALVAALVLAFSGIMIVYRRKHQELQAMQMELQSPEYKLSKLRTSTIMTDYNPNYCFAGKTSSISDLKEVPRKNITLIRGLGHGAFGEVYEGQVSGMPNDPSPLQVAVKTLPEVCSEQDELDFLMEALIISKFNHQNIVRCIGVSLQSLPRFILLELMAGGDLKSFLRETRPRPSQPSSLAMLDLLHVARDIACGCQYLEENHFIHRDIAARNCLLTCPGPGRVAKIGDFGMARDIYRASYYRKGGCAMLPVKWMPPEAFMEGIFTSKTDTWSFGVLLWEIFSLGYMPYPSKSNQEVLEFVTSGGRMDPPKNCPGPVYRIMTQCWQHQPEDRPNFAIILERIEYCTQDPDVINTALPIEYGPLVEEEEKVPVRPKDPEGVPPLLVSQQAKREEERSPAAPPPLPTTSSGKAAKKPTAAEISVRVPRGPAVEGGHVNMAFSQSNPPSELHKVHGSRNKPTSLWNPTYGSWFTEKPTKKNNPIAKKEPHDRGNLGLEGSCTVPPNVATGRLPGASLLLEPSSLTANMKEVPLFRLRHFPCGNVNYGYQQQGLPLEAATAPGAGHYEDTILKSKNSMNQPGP

For the compound `COc1ccc(-c2ccc3cnc(Nc4cccc(C5C(=O)N(C)CCN5C)c4)nn23)cn1` (stereo not drawn) [Example 1081, 3-{3-[7-(6-Methoxy-pyridin-3-yl)-pyrrolo[2,1-f][1,2,4]triazin-2-ylamino]-phenyl}-1,4-dimethyl-piperazin-2-one], the values for the IC50 at ALK (setting [1]) and on JAK2 (setting [2]) were greater than 10000 nM and less than 100 nM, respectively.

As for `COc1cc(N2CCC(CN3CCN(C)CC3)CC2)ccc1Nc1ncc2ccc(-c3ccccc3N(C)S(C)(=O)=O)n2n1` [Example 467, N-[2-(2-{2-Methoxy-4-[4-(4-methyl-piperazin-1-ylmethyl)-piperidin-1-yl]-phenylamino}-pyrrolo[2,1-f][1,2,4]triazin-7-yl)-phenyl]-N-methyl-methanesulfonamide], the IC50 at ALK (ALK Kinase Inhibition) was less than 100 nM; on JAK2 (JAK2 Kinase Inhibition), 100 to 1000 nM.

With `CC(=O)Nc1cc(Nc2ncc3ccc(-c4cccnc4)n3n2)ccc1C(C)(C)C` [Example 308, N-[2-tert-Butyl-5-(7-pyridin-3-yl-pyrrolo[2,1-f][1,2,4]triazin-2-ylamino)-phenyl]-acetamide], the IC50 on ALK (ALK Kinase Inhibition) was 100 to 1000 nM; on JAK2 (JAK2 Kinase Inhibition), less than 100 nM.

Consider `COc1cc(N2CCC[C@@H](C(=O)N3CCN(C)CC3)C2)ccc1Nc1ncc2ccc(-c3ccccc3OC)n2n1` [Example 463, ((R)-1-{3-Methoxy-4-[7-(2-methoxy-phenyl)-pyrrolo[2,1-f][1,2,4]triazin-2-ylamino]-phenyl}-piperidin-3-yl)-(4-methyl-piperazin-1-yl)-methanone], for which the IC50 was less than 100 nM on ALK (ALK Kinase Inhibition) and 100 to 1000 nM at JAK2 (JAK2 Kinase Inhibition).

Take `COc1ccccc1-c1ccc2cnc(Nc3ccc4c(c3)ncn4CCN3CCOCC3)nn12` [Example 1348, [7-(2-Methoxy-phenyl)-pyrrolo[2,1-f][1,2,4]triazin-2-yl]-[1-(2-morpholin-4-yl-ethyl)-1H-benzimidazol-5-yl]-amine]: the IC50 at ALK (setting [1]) is 100 to 1000 nM; on JAK2 (setting [2]), less than 100 nM.

For “N-{2-[2-(4-{4-[(2-Hydroxy-ethyl)-methyl-amino]-piperidin-1-yl}-2-ethoxy-phenylamino)-pyrrolo[2,1-f][1,2,4]triazin-7-yl]-phenyl}-N-methyl-methanesulfonamide [Example 795]”, the IC50 on ALK (setting [1]) was less than 100 nM; at JAK2 (setting [2]) it was 100 to 1000 nM.

`CN1CCN(c2ccc(Nc3ncc4ccc(Cc5ccccc5)n4n3)cc2)CC1` [Example 1140, (7-Benzyl-pyrrolo[2,1-f][1,2,4]triazin-2-yl)-[4-(4-methyl-piperazin-1-yl)-phenyl]-amine]: the IC50 at ALK (setting [1]) and on JAK2 (setting [2]) was less than 100 nM throughout.

For the compound `CC(C)(C)NS(=O)(=O)c1cccc(-c2ccc3cnc(Nc4ccc(C5CCNCC5)cc4)nn23)c1` [Example 1059, N-tert-Butyl-3-[2-(4-piperidin-4-yl-phenylamino)-pyrrolo[2,1-f][1,2,4]triazin-7-yl]-benzenesulfonamide], the results for the IC50 on ALK (setting [1]) and on JAK2 (setting [2]) were 100 to 1000 nM and less than 100 nM, respectively.

As for `Cc1nc(-c2ccc3cnc(Nc4ccc(N5CCOCC5)cc4)nn23)cn1C` [Example 1044, [7-(1,2-Dimethyl-1H-imidazol-4-yl)-pyrrolo[2,1-f][1,2,4]triazin-2-yl]-(4-morpholin-4-yl-phenyl)-amine], the IC50 at ALK (setting [1]) is 1000 to 10000 nM; on JAK2 (setting [2]), less than 100 nM.

As to `Cc1cc(-c2ccc(S(C)(=O)=O)cc2)n2nc(Nc3ccc(N4CCN(C)CC4)cc3)ncc12` [Example 108, [7-(4-Methanesulfonyl-phenyl)-5-methyl-pyrrolo[2,1-f][1,2,4]triazin-2-yl]-[4-(4-methyl-piperazin-1-yl)-phenyl]-amine], the IC50 on ALK (ALK Kinase Inhibition) is 100 to 1000 nM; at JAK2 (JAK2 Kinase Inhibition) it was less than 100 nM.

`COc1ccc(-c2ccc3cnc(Nc4cncc(C(N)=O)c4)nn23)cn1` [Example 667, 5-[7-(6-Methoxy-pyridin-3-yl)-pyrrolo[2,1-f][1,2,4]triazin-2-ylamino]-nicotinamide]: the results for the IC50 at ALK (setting [1]) and at JAK2 (setting [2]) were 100 to 1000 nM and less than 100 nM, respectively.

Consider `O=C(c1ccc(Nc2ncc3ccc(-c4cccnc4)n3n2)cc1)N1CCOCC1` [Example 317, Morpholin-4-yl-[4-(7-pyridin-3-yl-pyrrolo[2,1-f][1,2,4]triazin-2-ylamino)-phenyl]-methanone], for which the IC50 at ALK (ALK Kinase Inhibition) is 1000 to 10000 nM; on JAK2 (JAK2 Kinase Inhibition) it was less than 100 nM.

Regarding `CN(C)C(=O)CN1CCc2ccc(Nc3ncc4ccc(Br)n4n3)cc2CC1` [Example 1574], the IC50 at ALK (ALK Kinase Inhibition) was 1000 to 10000 nM; at JAK2 (JAK2 Kinase Inhibition), less than 100 nM.

With `N#CCCn1cc(-c2ccc3cnc(Nc4ccc(C5CCN(CC(N)=O)CC5)cc4)nn23)cn1` [Example 933, 2-[4-(4-{7-[1-(2-Cyano-ethyl)-1H-pyrazol-4-yl]-pyrrolo[2,1-f][1,2,4]triazin-2-ylamino}-phenyl)-piperidin-1-yl]-acetamide], the figures for the IC50 at ALK (setting [1]) and on JAK2 (setting [2]) were 100 to 1000 nM and less than 100 nM, respectively.

In the case of `CN(C)S(=O)(=O)c1cccc(Nc2ncc3cc4ccccc4n3n2)c1` [Example 273, N,N-Dimethyl-3-([1,2,4]triazino[1,6-a]indol-2-ylamino)-benzenesulfonamide], the IC50 at ALK (ALK Kinase Inhibition) is greater than 10000 nM; on JAK2 (JAK2 Kinase Inhibition) it was 100 to 1000 nM.

With `COc1ccccc1-c1ccc2cnc(Nc3cccc(C(=O)N4CCN(CCO)CC4)c3OC)nn12` [Example 1233, [4-(2-Hydroxy-ethyl)-piperazin-1-yl]-{2-methoxy-3-[7-(2-methoxy-phenyl)-pyrrolo[2,1-f][1,2,4]triazin-2-ylamino]-phenyl}-methanone], the IC50 at ALK (setting [1]) lay in the range of 100 to 1000 nM; on JAK2 (setting [2]), 1000 to 10000 nM.

Regarding `COc1cc(C2CCN(C3COC3)CC2)ccc1Nc1ncc2ccc(-c3ccccc3OC)n2n1` [Example 827, [2-Methoxy-4-(1-oxetan-3-yl-piperidin-4-yl)-phenyl]-[7-(2-methoxy-phenyl)-pyrrolo[2,1-f][1,2,4]triazin-2-yl]-amine], the IC50 at ALK (setting [1]) is less than 100 nM; on JAK2 (setting [2]), 100 to 1000 nM.

On to `CC(=O)N1CCCC(C)(C)c2ccc(Nc3ncc4ccc(-c5cccc(NS(C)(=O)=O)c5)n4n3)cc21` [Example 1365, N-{3-[2-(1-Acetyl-5,5-dimethyl-2,3,4,5-tetrahydro-1H-benzo[b]azepin-8-ylamino)-pyrrolo[2,1-f][1,2,4]triazin-7-yl]-phenyl}-methanesulfonamide], for which the IC50 on ALK (setting [1]) was 1000 to 10000 nM; at JAK2 (setting [2]), less than 100 nM.

Take `CC(C)(C)NS(=O)(=O)c1cccc(-c2ccc3cnc(Nc4ccc5cnn(CCN6CCOCC6)c5c4)nn23)c1` [Example 1324, N-tert-Butyl-3-{2-[1-(2-morpholin-4-yl-ethyl)-1H-indazol-6-ylamino]-pyrrolo[2,1-f][1,2,4]triazin-7-yl}-benzenesulfonamide]: the values for the IC50 on ALK (setting [1]) and at JAK2 (setting [2]) were 1000 to 10000 nM and less than 100 nM, respectively.

As to “[7-(3-Chloro-phenyl)-pyrrolo[2,1-f][1,2,4]triazin-2-yl]-{4-[2-(4-ethyl-piperazin-1-yl)-ethoxy]-phenyl}-amine [Example 93]”, the IC50 on ALK (ALK Kinase Inhibition) and at JAK2 (JAK2 Kinase Inhibition) was less than 100 nM each time.

`CC(C)(C)NS(=O)(=O)c1cccc(-c2ccc3cnc(Nc4ccc5[nH]ncc5c4)nn23)c1` [Example 1315, N-tert-Butyl-3-[2-(1H-indazol-5-ylamino)-pyrrolo[2,1-f][1,2,4]triazin-7-yl]-benzenesulfonamide]: the IC50 on ALK (setting [1]) is 1000 to 10000 nM; on JAK2 (setting [2]), less than 100 nM.

`N#CCCc1cccc(-c2ccc3cnc(Nc4ccc(N5CCOCC5)cc4)nn23)c1` [Example 1145, 3-{3-[2-(4-Morpholin-4-yl-phenylamino)-pyrrolo[2,1-f][1,2,4]triazin-7-yl]-phenyl}-propionitrile]: the IC50 on ALK (setting [1]) was 100 to 1000 nM; at JAK2 (setting [2]), less than 100 nM.

Turning to `COc1cc(N2CCC(N(C)C)CC2)ccc1Nc1ncc2ccc(-c3ccccc3OC)n2n1` [Example 476, [4-(4-Dimethylamino-piperidin-1-yl)-2-methoxy-phenyl]-[7-(2-methoxy-phenyl)-pyrrolo[2,1-f][1,2,4]triazin-2-yl]-amine], the IC50 at ALK (setting [1]) and at JAK2 (setting [2]) was less than 100 nM throughout.

On to `Cc1cc(Nc2ncc3ccc(-c4cccc(S(C)(=O)=O)c4)n3n2)ccc1C1CCN(CC(N)=O)CC1` [Example 948, 2-(4-{4-[7-(3-Methanesulfonyl-phenyl)-pyrrolo[2,1-f][1,2,4]triazin-2-ylamino]-2-methyl-phenyl}-piperidin-1-yl)-acetamide], for which the IC50 on ALK (setting [1]) and at JAK2 (setting [2]) was less than 100 nM throughout.

For the compound `CC(=O)N1CCCCc2ccc(Nc3ncc4ccc(-c5ccccc5N(C)S(C)(=O)=O)n4n3)cc21` [Example 630, N-{2-[2-(1-Acetyl-2,3,4,5-tetrahydro-1H-benzo[b]azepin-8-ylamino)-pyrrolo[2,1-f][1,2,4]triazin-7-yl]phenyl}-N-methylmethanesulfonamide], the IC50 on ALK (setting [1]) was 1000 to 10000 nM; on JAK2 (setting [2]), less than 100 nM.

On to `CC1(C)C(=O)Nc2cc(Nc3ncc4ccc(-c5cccc(N6CCCS6(=O)=O)c5)n4n3)ccc21` [Example 1510, 6-({7-[3-(1,1-Dioxido-1,2-thiazolidin-2-yl)phenyl]pyrrolo[2,1-f][1,2,4]triazin-2-yl}amino)-3,3-dimethyl-1,3-dihydro-2H-indol-2-one], for which the IC50 is 1000 to 10000 nM at ALK (ALK Kinase Inhibition) and less than 100 nM on JAK2 (JAK2 Kinase Inhibition).

`COc1cc(C2CCN(CC(N)=O)CC2)ccc1Nc1ncc2ccc(-c3ncccc3OC)n2n1` [Example 1532, 2-(4-{3-Methoxy-4-[7-(3-methoxy-pyridin-2-yl)-pyrrolo[2,1-f][1,2,4]triazin-2-ylamino]-phenyl}-piperidin-1-yl)-acetamide]: the IC50 on ALK (ALK Kinase Inhibition) and on JAK2 (JAK2 Kinase Inhibition) was 1000 to 10000 nM in each case.
